For two compounds, Kd results are on record in PMC6232145, “Intrinsic disorder in the regulatory N-terminal domain of diacylglycerol acyltransferase 1 from Brassica napus” (Scientific Reports, 2018).

The structures appear in SMILES notation.

In assay [1] the target is T1, Brassica napus diacylglycerol acyltransferase 1 (BnaDGAT1, isoform BnaC.DGAT1.a) (Brassica napus, UniProt Q9M4V2).
T1 construct: gene DGAT1-4; BnaDGAT1_1-113, cytoplasmic N-terminal domain (residues 1-113), N-terminal 10 x His-tag
T1 sequence (Q9M4V2 1-113): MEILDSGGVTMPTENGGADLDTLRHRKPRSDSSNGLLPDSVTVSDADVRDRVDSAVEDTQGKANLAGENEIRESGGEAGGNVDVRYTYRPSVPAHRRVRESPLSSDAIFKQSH
The experiment in a line: ITC ([…] stoichiometry); supported by CD. It counts as binding.

For assay [2], the target named is T1, Brassica napus diacylglycerol acyltransferase 1 (BnaDGAT1, isoform BnaC.DGAT1.a). Briefly: ITC ([…] stoichiometry); supported by thermal shift (about […] degree Tm increase) and CD. The class given is binding.

In the case of `CC(C)(COP(=O)(O)OP(=O)(O)OC[C@H]1O[C@@H](n2cnc3c(N)ncnc32)[C@H](O)[C@@H]1OP(=O)(O)O)[C@@H](O)C(=O)NCCC(=O)NCCS` [CoA], in assay [1], binding was put at a Kd of 60 ± 10 µM. Take `CCCCCCCC/C=C\CCCCCCCC(=O)SCCNC(=O)CCNC(=O)[C@H](O)C(C)(C)COP(=O)(O)OP(=O)(O)OC[C@H]1O[C@@H](n2cnc3c(N)ncnc32)[C@H](O)[C@@H]1OP(=O)(O)O` [oleoyl-CoA]: the Kd – broadly, the concentration at which binding is half-saturated – in assay [2] came out at 10 ± 0.01 µM.
